The text below walks through data of patent publication EP1705169A2, “Triphenylalkene derivatives and their use as selective estrogen receptor modulators” (priority 1999, dated 2001).

Read-outs that look alike come from different tables or passages of the source.

The subject of this assay is MCF-7 cells. In words: cells. The note with it: for inhibition at 1 µM / Emax / cytotoxicity at 10 µM: Homo sapiens, MCF7, 96 h; for inhibition at 1 µM: read-out: Antagonism at 1 µM (% of full antagonism); for Emax: read-out: Maximal Agonism (% of E2); for cytotoxicity at 10 µM: toxicity at 10 µmol/l, 100 = all cells dead; for Estrogenic and antiestrogenic action (in words): summary statement referring to Tables 2, 3 and 4; for Kill of MCF-7 cells (in words): highest investigated concentration (10 µM), Table 2; for Hormonal activity (in words): summary statement referring to Table 2. As for the experimental part:
For experiments involving hormone or anti-hormone treatment, the cells in exponential growth phase were precultivated in the absence of estradiol for one day. […] After the incubation period the medium was removed. The exposure to study drugs was started immediately by adding fresh medium with 5 % stripped serum. Half of the cells were grown with estradiol, half without estradiol. Study compounds (dissolved in ethanol in 0.01 M concentration and diluted with the growth medium as appropriate) were added. The final concentrations of the compounds were 1,10, and 100 nM, and 1 and 10 µM. The cells were incubated for four days.
This method allows evaluation of estrogenicity based on the ability of the compounds to stimulate the growth of the estrogen-dependent cells in the absence of estradiol. Estrogenicity was estimated by comparing the maximal growth stimulus (at any concentration) of study compound as per cent from growth stimulus by estradiol (100 % stimulus). […] At high concentrations molecules may also show toxicity. Toxicity was estimated as the fraction of dead cells (i.e. 100 % means that all cells have died during the exposure).

Setting [1] is: read-out: Maximal Cell Kill (% fraction of dead cells), With estradiol (E2).
The mark [2] stands for this setting: read-out: Maximal Cell Kill (% fraction of dead cells), Without estradiol (E2).

Consider `OCCOc1ccc(/C(=C(/CCCl)c2ccc(Cl)cc2)c2ccc(Cl)cc2)cc1` [No. 9, (E)-2-{4-[4-Chloro-1,2-bis(4-chlorophenyl)but-1-enyl]phenoxy}ethanol], for which the inhibition at 1 µM worked out at 9% and the Emax turned out to be 14%. For the same compound, the cytotoxicity at 10 µM under setting [1] came to 62%. In addition, the cytotoxicity at 10 µM under setting [2] came out at 45%.

With `OCCOc1ccc(/C(=C(/CCCl)c2ccccc2)c2cccc(O)c2)cc1` [No. 34, (E)-3-{4-Chloro-1-[4-(2-hydroxyethoxy)phenyl]-2-phenyl-but-1-enyl}-phenol], the inhibition at 1 µM came out at 0% and the Emax was found to be 0%. Besides, the cytotoxicity at 10 µM under setting [1] worked out at 0%. Further, under setting [2], the cytotoxicity at 10 µM was determined as 0%.

In the case of `OCCOc1cccc(/C(=C(/CCCl)c2ccccc2)c2ccccc2)c1` [No. 18, (Z)-2-[3-(4-Chloro-1,2-diphenyl-but-1-enyl)phenoxy]ethanol], the inhibition at 1 µM is 1%; the “Estrogenic and antiestrogenic action (in words)” value is “weak estrogenic and no antiestrogenic action”. Under setting [1], the cytotoxicity at 10 µM is 40%. The cytotoxicity at 10 µM under setting [2] worked out at 10%.

In the case of `OCCOc1ccc(/C(=C(/CCCl)c2ccccc2)c2ccc(F)cc2)cc1` [No. 8, (E)-2-{4-[4-Chloro-2-phenyl-1-(4-fluorophenyl)but-1-enyl]phenoxy} ethanol], the inhibition at 1 µM stood at 92% and the Emax stood at 31%. Besides, the cytotoxicity at 10 µM under setting [1] was 52%. Moreover, the cytotoxicity at 10 µM under setting [2] is 2%.

On to `CN(C)CCOc1ccc(/C(=C(/CCCl)c2ccc(F)cc2)c2ccccc2)cc1` [No. 25, (Z)-(2-{4-[4-Chloro-2-(4-fluorophenyl)-1-phenylbut-1-enyl]phenoxy}ethyl)-dimethylamine], for which the inhibition at 1 µM stood at 6%; the Emax was 17%; the “Estrogenic and antiestrogenic action (in words)” value was “weak estrogenic and no antiestrogenic action”. Besides, the cytotoxicity at 10 µM under setting [1] is 27%. Under setting [2], the cytotoxicity at 10 µM stood at 42%.

`COc1ccc(/C(=C(/CCCl)c2ccc(Cl)cc2)c2ccc(OCCN(C)C)cc2)cc1` [No. 27, (E)-(2-{4-[4-Chloro-2-(4-chlorophenyl)-1-(4-methoxyphenyl)but-1-enyl]phenoxy}-ethyl)dimethylamine]: the inhibition at 1 µM was determined as 5%, the Emax is 0%, the “Kill of MCF-7 cells (in words)” value is on record as “kill MCF-7 cells (human breast cancer cells) effectively” and the “Hormonal activity (in words)” value is listed as “weak hormonal activity”. The cytotoxicity at 10 µM under setting [1] worked out at 100%. Also, under setting [2], the cytotoxicity at 10 µM was 99%.

For `OCCOc1ccc(/C(=C(/CCCl)c2ccc(O)cc2)c2ccccc2)cc1` [No. 42, (Z)-4-{1-(2-Chloroethyl)-2-[4-(2-hydroxyethoxy)phenyl]-2-phenylvinyl}phenol], the inhibition at 1 µM is 13% and the Emax was 9%. For the same compound, the cytotoxicity at 10 µM under setting [1] was 54%. In addition, under setting [2], the cytotoxicity at 10 µM was 23%.

In the case of `OCCOc1ccc(C(=C(CCCl)c2ccccc2)c2ccc(OCCO)cc2)cc1` [No. 16, 2-(4-{4-Chloro-1-[4-(2-hydroxyethoxy)phenyl]-2-phenyl-but-1-enyl}phenoxy)-1-ethanol], the inhibition at 1 µM came out at 23%, the Emax was 22%, the “Kill of MCF-7 cells (in words)” value is reported as “kill MCF-7 cells (human breast cancer cells) effectively” and the “Hormonal activity (in words)” value is listed as “weak hormonal activity”. For the same compound, under setting [1], the cytotoxicity at 10 µM was determined as 96%. Also, the cytotoxicity at 10 µM under setting [2] came to 90%.

As for `COc1ccc(/C(=C(\CCCl)c2ccc(Cl)cc2)c2ccc(OCCO)cc2)cc1` [No. 37, (Z)-2-{4-[4-Chloro-2-(4-chlorophenyl)-1-(4-methoxyphenyl)but-1-enyl]-phenoxy} ethanol], the inhibition at 1 µM was 0% and the Emax worked out at 4%. Besides, under setting [1], the cytotoxicity at 10 µM came to 41%. The cytotoxicity at 10 µM under setting [2] is 39%.
